These results are taken from BindingDB's records for doi:10.3109/14756366.2011.637202 (Agri Ibrahim Cecen University, 2012).

Targets include Carbonic anhydrase 2 (Homo sapiens, UniProt P00918); Carbonic anhydrase 4 (Homo sapiens, UniProt P22748); Carbonic anhydrase 6 (Homo sapiens, UniProt P23280); Carbonic anhydrase 1 (Homo sapiens, UniProt P00915).
Common to all, as to experiment: Esterase Activity Assay

Molecules are shown by their SMILES.

Sequence of Carbonic anhydrase 4 (P22748 whole entry): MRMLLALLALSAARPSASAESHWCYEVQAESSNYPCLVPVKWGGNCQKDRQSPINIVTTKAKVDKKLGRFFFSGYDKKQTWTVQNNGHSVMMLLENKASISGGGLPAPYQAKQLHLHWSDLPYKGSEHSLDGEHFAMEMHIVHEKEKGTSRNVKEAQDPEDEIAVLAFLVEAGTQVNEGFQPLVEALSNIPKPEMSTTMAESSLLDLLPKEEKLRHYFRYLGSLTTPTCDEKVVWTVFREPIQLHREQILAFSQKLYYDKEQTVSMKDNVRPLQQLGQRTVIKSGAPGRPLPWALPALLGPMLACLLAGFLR
Sequence of Carbonic anhydrase 6 (P23280 whole entry): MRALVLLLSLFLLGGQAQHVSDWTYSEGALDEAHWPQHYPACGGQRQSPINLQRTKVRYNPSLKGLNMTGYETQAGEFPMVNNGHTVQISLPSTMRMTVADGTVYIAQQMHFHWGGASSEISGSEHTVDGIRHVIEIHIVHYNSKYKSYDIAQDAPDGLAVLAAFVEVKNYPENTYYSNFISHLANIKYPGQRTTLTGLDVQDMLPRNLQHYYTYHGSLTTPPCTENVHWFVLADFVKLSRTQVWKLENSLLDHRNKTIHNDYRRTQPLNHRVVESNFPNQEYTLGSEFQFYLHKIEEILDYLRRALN
Sequence of Carbonic anhydrase 1 (P00915 whole entry): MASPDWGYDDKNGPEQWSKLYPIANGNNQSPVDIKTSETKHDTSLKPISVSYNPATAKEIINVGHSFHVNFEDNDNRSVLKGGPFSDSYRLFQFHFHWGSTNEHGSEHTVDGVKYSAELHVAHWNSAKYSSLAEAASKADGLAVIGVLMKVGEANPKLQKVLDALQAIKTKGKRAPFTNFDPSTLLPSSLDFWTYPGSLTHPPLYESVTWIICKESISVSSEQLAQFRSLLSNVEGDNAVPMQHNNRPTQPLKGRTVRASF

For `Oc1ccccc1`, the values for the Ki on Carbonic anhydrase 2 and on Carbonic anhydrase 4 were 5.6 µM and 9.7 µM, respectively.

For `Oc1cccc(O)c1O`, the Ki at Carbonic anhydrase 6 was determined as 6.83 µM; at Carbonic anhydrase 2, 0.52 µM; at Carbonic anhydrase 4, 0.49 µM.

On to `CS(=O)(=O)Oc1ccccc1OS(C)(=O)=O` [1,2-Phenylenedimethanesulfonate (13)], for which the Ki on Carbonic anhydrase 6 came out at 313 µM; on Carbonic anhydrase 1, 196 µM; on Carbonic anhydrase 2, 28.5 µM; on Carbonic anhydrase 4, 41.6 µM.

Turning to `CS(=O)(=O)Oc1ccc(OS(C)(=O)=O)cc1` [1,4-Phenylene dimethanesulfonate (6)], the Ki at Carbonic anhydrase 6 was 28.4 µM; at Carbonic anhydrase 1 it was 22.1 µM; at Carbonic anhydrase 2, 4.23 µM; at Carbonic anhydrase 4, 9.12 µM.

Regarding `COc1ccccc1O` [1-Hydroxy-2-methoxybenzene], the results for the Ki at Carbonic anhydrase 6, at Carbonic anhydrase 2 and at Carbonic anhydrase 4 were 217 µM, 2.98 µM and 3.56 µM, respectively.

On to `COc1cc(C=O)ccc1OS(C)(=O)=O` [4-Formyl-2-methoxyphenyl methanesulfonate (15)], for which the Ki on Carbonic anhydrase 6 worked out at 12.1 µM; on Carbonic anhydrase 1, 79.1 µM; at Carbonic anhydrase 2 it was 6.45 µM; on Carbonic anhydrase 4, 8.14 µM.

On to `Oc1ccc(-c2ccccc2)cc1` [4-Hydroxybiphenyl], for which the Ki is 85 µM on Carbonic anhydrase 6, 19.5 µM at Carbonic anhydrase 1, 7.41 µM on Carbonic anhydrase 2 and 12.3 µM on Carbonic anhydrase 4.

Consider `CS(=O)(=O)Oc1cccc(OS(C)(=O)=O)c1OS(C)(=O)=O` [Benzene-1,2,3-triyltrimethanesulfonate (11)], for which the Ki on Carbonic anhydrase 6 came out at 458 µM; at Carbonic anhydrase 1, 478 µM; at Carbonic anhydrase 2, 35.4 µM; on Carbonic anhydrase 4 it was 45.1 µM.

Take `CS(=O)(=O)Oc1ccc(-c2ccccc2)cc1` [Biphenyl-4-ylmethanesulfonate (5)]: the Ki on Carbonic anhydrase 6 is 162 µM; on Carbonic anhydrase 1 it was 48.5 µM; at Carbonic anhydrase 2 it was 12.2 µM; on Carbonic anhydrase 4, 26.5 µM.

On to `CS(=O)(=O)Oc1ccccc1` [Phenylmethanesulfonate (4)], for which the Ki on Carbonic anhydrase 6 is 105 µM; on Carbonic anhydrase 1, 27.4 µM; at Carbonic anhydrase 2 it was 8.7 µM; at Carbonic anhydrase 4, 15.4 µM.

As a reminder, the Ki is the dissociation constant of the complex between target and ligand, obtained from inhibition or displacement. A high value points to lower affinity.
